Assay results from patent US20120258960A1, “NOVEL MULTIFUNCTIONAL PEPTIDASE INHIBITORS, ESPECIALLY FOR MEDICAL USE” (IMTM GMBH, priority 2009, published 2012).

Assays:
[1] = tested on: human peripheral blood mononuclear cells; assay: Inhibition of proliferation of PHA-stimulated mononuclear cells (BrdU incorporation); assay type: cell-based; conditions: PBMC, 1 μg/ml Phytohemagglutinine, 48 hours, test compounds 0.1-250 μM, read-out: MNC IC50
Protocol: (§1) Peripheral blood mononuclear cells (PBMC) from healthy human volunteers were freshly isolated by density gradient centrifugation. T lymphocytes (T cells, Tc) were isolated from PBMC fractions via nylon wool adherence. Cells were cultured in standard cell culture media and stimulated by addition of 1 μg/ml Phytohemagglutinine for 48 hours in 96 well flat-bottom microtitre plates. Test compounds were added at concentration ranges from 0.1-250 μM over the total assay period.
DNA synthesis of proliferating PBMC was assessed by incorporation of nucleotide analogue bromdesoxyuridine (BrdU) and subsequent detection of optical density (OD) at 450 nm.
(§2) Data output was based on raw data and calculation of relative proliferation response in relation to PHA-activated T cells in the absence of test compound (100% control).
(§3) The […] value of proliferation suppression was assessed by graphical evaluation.

T lymphocytes = assay: Inhibition of proliferation of PHA-stimulated T lymphocytes (tritium thymidine incorporation); assay type: cell-based; conditions: Homo sapiens, T-lymphocyte, 1 μg/ml Phytohemagglutinine, 48 hours, test compounds 0.1-250 μM, read-out: T cells IC50
Protocol: as §1
DNA synthesis of proliferating T cells was determined by incorporation of radio labelled tritium thymidine and subsequent radio detection.
as §2, §3

[2] = molecular target: human recombinant Aminopeptidase N (Homo sapiens, UniProt P15144); assay: Measurement of APN activity (fluorogenic substrate (Ala)2-R110); assay type: biochemical; conditions: human recombinant APN approx. 5 nM, substrate 0.5 μM, pH 7.5
Chain of human recombinant Aminopeptidase N (P15144 whole entry): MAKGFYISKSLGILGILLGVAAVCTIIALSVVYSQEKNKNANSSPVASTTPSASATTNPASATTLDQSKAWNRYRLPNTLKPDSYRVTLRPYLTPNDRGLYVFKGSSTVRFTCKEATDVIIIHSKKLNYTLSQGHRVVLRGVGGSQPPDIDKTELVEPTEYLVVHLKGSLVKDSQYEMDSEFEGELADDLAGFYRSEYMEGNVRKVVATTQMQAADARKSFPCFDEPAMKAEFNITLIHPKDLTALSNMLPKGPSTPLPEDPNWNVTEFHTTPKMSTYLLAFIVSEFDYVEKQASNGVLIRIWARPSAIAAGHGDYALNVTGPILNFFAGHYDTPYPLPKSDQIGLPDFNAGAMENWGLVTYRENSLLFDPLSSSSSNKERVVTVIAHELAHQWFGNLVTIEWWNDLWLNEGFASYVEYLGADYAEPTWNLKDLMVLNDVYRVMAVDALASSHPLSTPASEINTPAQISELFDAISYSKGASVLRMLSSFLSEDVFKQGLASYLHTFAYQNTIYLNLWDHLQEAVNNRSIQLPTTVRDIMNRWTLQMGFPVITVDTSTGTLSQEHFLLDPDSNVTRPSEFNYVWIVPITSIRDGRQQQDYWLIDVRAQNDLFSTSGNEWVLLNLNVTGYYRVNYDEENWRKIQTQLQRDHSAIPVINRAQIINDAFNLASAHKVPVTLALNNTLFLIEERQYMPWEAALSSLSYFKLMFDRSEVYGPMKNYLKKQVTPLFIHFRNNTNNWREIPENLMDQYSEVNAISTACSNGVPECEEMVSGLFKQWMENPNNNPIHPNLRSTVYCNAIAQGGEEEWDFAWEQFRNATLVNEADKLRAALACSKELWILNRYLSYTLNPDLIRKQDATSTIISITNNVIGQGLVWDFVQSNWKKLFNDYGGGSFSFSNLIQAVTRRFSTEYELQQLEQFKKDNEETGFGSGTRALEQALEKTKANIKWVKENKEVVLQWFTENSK
Protocol: Inhibitory effects of test items on the enzymatic activity of human recombinant Aminopeptidase N (final concentration approx. 5 nM) were assessed by using the fluorogenic substrate bis-(L-alanyl)-Rhodamine-110 (bis-trifluoracetate, abbreviation (Ala)2-R110) at a final concentration of 0.5 μM. The assay was performed in 0.05 M TRIS/HCl buffer pH 7.5, supplemented with 0.05% Triton (v/v), 0.05% BSA (w/v), 2 mM MgCl2.
The assay was performed in white microtitre plates for fluorescence measurements.
As controls, (Ala)2-R110 hydrolyzing activity in the absence of any test item as well as the spontaneous substrate hydrolysis was determined.
The release of the fluorescent hydrolysis product Rhodamine 110 was measured at an excitation wavelength of 485 nm and an emission wavelength of 530 nm by using a microtitre fluorescence reader immediately after substrate addition as well as after 30, 60 and 120 min.

[3] = molecular target: purified, recombinant human DPIV (Homo sapiens, UniProt P27487); assay: Measurement of DPIV activity (fluorogenic substrate (Ala-Pro)2-R110)
Chain of purified, recombinant human DPIV (P27487 whole entry): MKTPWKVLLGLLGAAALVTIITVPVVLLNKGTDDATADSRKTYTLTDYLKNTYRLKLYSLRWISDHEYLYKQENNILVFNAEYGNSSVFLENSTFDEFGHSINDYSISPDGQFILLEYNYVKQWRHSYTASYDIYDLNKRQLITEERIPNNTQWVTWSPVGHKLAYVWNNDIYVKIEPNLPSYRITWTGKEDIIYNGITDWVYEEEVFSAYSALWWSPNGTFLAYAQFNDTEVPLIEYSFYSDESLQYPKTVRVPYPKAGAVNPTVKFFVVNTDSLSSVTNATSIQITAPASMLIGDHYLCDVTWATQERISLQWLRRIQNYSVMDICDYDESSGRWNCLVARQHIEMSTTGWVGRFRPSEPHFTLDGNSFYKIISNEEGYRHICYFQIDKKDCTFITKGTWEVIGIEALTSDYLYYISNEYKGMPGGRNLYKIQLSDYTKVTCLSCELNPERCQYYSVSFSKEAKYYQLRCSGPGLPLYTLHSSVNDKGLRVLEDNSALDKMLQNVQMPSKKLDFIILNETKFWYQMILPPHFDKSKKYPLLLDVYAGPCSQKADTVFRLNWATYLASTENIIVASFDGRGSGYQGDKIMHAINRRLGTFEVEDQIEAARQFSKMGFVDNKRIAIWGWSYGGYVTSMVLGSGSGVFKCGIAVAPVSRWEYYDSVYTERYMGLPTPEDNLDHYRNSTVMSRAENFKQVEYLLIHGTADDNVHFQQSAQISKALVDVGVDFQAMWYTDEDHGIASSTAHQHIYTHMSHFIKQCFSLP
Protocol: The enzymatic activity of DPIV was assessed by the hydrolysis of the fluorogenic substrate bis-(L-alanyl-prolyl)-Rhodamin-110 (bis-trifluoracetate, abbreviation (Ala-Pro)2-R110). The final substrate concentration was 0.5 μM.
The assay was performed in white microtitre plates for fluorescence measurements. The test items, substrate and enzyme were diluted in assay buffer. […] As controls, the DPIV activity in the absence of test items as well as the spontaneous hydrolysis of the substrate was determined.

| SMILES | IC50 [1] [µM] | IC50 (T lymphocytes) [µM] | IC50 [2] [µM] | IC50 [3] [µM] |
| --- | --- | --- | --- | --- |
| NC(CC(=O)NC(CCCNC(=O)C(O)C(N)Cc1ccccc1)C(=O)O)Cc1cc(F)ccc1F (centres unmarked) [drawing 241] | 70 | 113 |  |  |
| NC(CC(=O)NCC1(CNC(=O)C(O)C(N)Cc2ccccc2)CCCC1)Cc1cc(F)ccc1F (centres unmarked) [drawing 274] | 16.2 | 12.9 |  |  |
| CCCCCCCCCCCCCC(=O)OC(C(=O)NCC(C)(C)CNC(=O)CC(N)Cc1cc(F)ccc1F)C(N)Cc1ccccc1 (centres unmarked) [drawing 252] | 1.9 | 2 |  |  |
| NC(CC(=O)NCCCCCNC(=O)C(O)C(N)Cc1ccccc1)Cc1ccccc1 (centres unmarked) [drawing 233] | 200 | ≥ 200 |  |  |
| CC(C)(CNC(=O)CC(N)Cc1cc(F)ccc1F)CNC(=O)C(OC(=O)CCCc1ccccc1)C(N)Cc1ccccc1 (centres unmarked) [drawing 255] | 2.5 | 3 |  |  |
| NC(CC(=O)Nc1cccc(NC(=O)C(O)C(N)Cc2ccccc2)c1)Cc1cc(F)ccc1F (centres unmarked) [drawing 270] | 9.1 | 9.4 |  |  |
| NC(CC(=O)NCCCCNC(=O)C(O)C(N)Cc1ccccc1)Cc1ccccc1 (centres unmarked) [drawing 229] | 200 | ≥ 200 |  |  |
| NC(CC(=O)NCCNC(=O)C(O)C(N)Cc1ccccc1)Cc1ccccc1 (centres unmarked) [drawing 220] | 122 | ≥ 200 |  |  |
| CC(C)(CNCC(N)Cc1cc(F)ccc1F)CNC(=O)C(O)C(N)Cc1ccccc1 (centres unmarked) [drawing 276] | 30.6 | 30.3 |  |  |
| CCCCCCCC(=O)OC(C(=O)N(C)CCCNC(=O)CC(N)Cc1cc(F)ccc1F)C(N)Cc1ccccc1 (centres unmarked) [drawing 250] | 11.1 | 9.5 |  |  |
| CC(C)(CNC(=O)CC(N)Cc1cc(F)ccc1F)CNC(=O)C(O)C(N)Cc1ccc(-c2cncnc2)cc1 (centres unmarked) [drawing 283] | 70 | 96.1 |  |  |
| CCCCCC(=O)OC(C(=O)NCC(C)(C)CNC(=O)CC(N)Cc1cc(F)ccc1F)C(N)Cc1ccccc1 (centres unmarked) [drawing 261] | 14.3 | 11.3 |  |  |
| CCCCCCCCCCCCCCCCNC(CC(=O)NCC(C)(C)CNC(=O)C(O)C(Cc1ccccc1)NCCCCCCCCCCCCCCCC)Cc1cc(F)ccc1F (centres unmarked) [drawing 272] | 10 | 11 |  |  |
| NC(CC(=O)NCCCCNC(=O)C(O)C(N)Cc1ccccc1)C(=O)N1CCSC1 (centres unmarked) [drawing 248] | 28.3 | 35.2 |  |  |
| CCCCCCCCCC(=O)OC(C(=O)NCC(C)(C)CNC(=O)CC(N)Cc1cc(F)ccc1F)C(N)Cc1ccccc1 (centres unmarked) [drawing 254] | 2.5 | 3.1 |  |  |
| NC(CNC(=O)c1cccc(NC(=O)C(O)C(N)Cc2ccccc2)c1)Cc1cc(F)ccc1F (centres unmarked) [drawing 277] | 27.2 | 21.4 |  |  |
| CC(C)(CNC(=O)CC(N)Cc1ccccc1)CNC(=O)C(O)C(N)Cc1ccccc1 (centres unmarked) [drawing 227] | 200 | ≥ 200 |  |  |
| NC(CC(=O)Nc1ccc(NC(=O)C(O)C(N)Cc2ccccc2)cc1)Cc1cc(F)ccc1F (centres unmarked) [drawing 245] | 14.8 | 14.6 |  |  |
| CC(C)(CNC(=O)CC(N)C(=O)N1CCSC1)CNC(=O)C(O)C(N)Cc1ccccc1 (centres unmarked) [drawing 236] | 200 | ≥ 200 |  |  |
| CCCCCCCCCCCCCCCC(=O)OC(C(=O)NCCCCNC(=O)CC(N)Cc1cc(F)ccc1F)C(N)Cc1ccccc1 (centres unmarked) [drawing 259] | 2.1 | 4.1 |  |  |
| CC(C)(CNC(=O)CC(N)Cc1cc(F)ccc1F)CNC(=O)C(O)C(N)Cc1ccc(O)cc1 (centres unmarked) [drawing 279] | 43.2 | 37.6 |  |  |
| CCCCCCCCCCCCCC(=O)NC(CC(=O)NCC(C)(C)CNC(=O)C(O)C(Cc1ccccc1)NC(=O)CCCCCCCCCCCCC)Cc1cc(F)ccc1F (centres unmarked) [drawing 264] |  | 98.7 |  |  |
| CC(C)(CNC(=O)CC(N)Cc1cc(F)ccc1F)CNC(=O)C(O)C(N)Cc1ccccc1 (centres unmarked) [drawing 232] | 200 | ≥ 200 |  |  |
| CN(CCCN(C)C(=O)C(O)C(N)Cc1ccccc1)C(=O)CC(N)Cc1cc(F)ccc1F (centres unmarked) [drawing 238] | 122 | 70 |  |  |

| SMILES | IC50 [1] [µM] | IC50 (T lymphocytes) [µM] | IC50 [2] [µM] | IC50 [3] [µM] |
| --- | --- | --- | --- | --- |
| NC(CC(=O)NCC1(CNC(=O)C(O)C(N)Cc2ccccc2)CCCCC1)Cc1cc(F)ccc1F (centres unmarked) [drawing 273] | 7.4 | 7 |  |  |
| C[C@@H]1CN(C(=O)CC(O)C(N)Cc2ccccc2)C[C@H](C)N1C(=O)CC(N)Cc1ccccc1 (some centres unmarked) [drawing 225] | 84.5 | 147 |  |  |
| NC(CC(=O)NCCCNC(=O)C(O)C(N)Cc1ccccc1)Cc1cc(F)ccc1F (centres unmarked) [drawing 237] | 122 | 70 |  |  |
| CC(C)(CCNC(=O)CC(N)Cc1cc(F)ccc1F)CNC(=O)C(O)C(N)Cc1ccccc1 (centres unmarked) [drawing 242] | 63.3 | 157 |  |  |
| CCCCCCCC(=O)OC(C(=O)NCCCCNC(=O)CC(N)Cc1cc(F)ccc1F)C(N)Cc1ccccc1 (centres unmarked) [drawing 256] | 10.6 | 19 |  |  |
| CC(C(=O)NCC(C)(C)CNC(=O)C(O)C(N)Cc1ccccc1)C(N)Cc1cc(F)ccc1F (centres unmarked) [drawing 266] | 41.6 | 38.9 |  |  |
| CC(C)(CNC(=O)C(O)C(N)Cc1ccccc1)CNC(=O)C(CC(=O)O)C(N)Cc1cc(F)ccc1F (centres unmarked) [drawing 262] |  | 88.3 |  |  |
| CC(C)(CNC(=O)CC(N)Cc1cc(F)ccc1F)CNC(=O)C(O)C(N)Cc1ccc(-c2cccnc2)cc1 (centres unmarked) [drawing 282] | 31.4 | 64.9 |  |  |
| NC(CC(=O)NCCCCNC(=O)C(O)C(N)Cc1ccc(Br)cc1)Cc1cc(F)ccc1F (centres unmarked) [drawing 267] | 200 | 58.1 |  |  |
| NC(CC(=O)NCCCCCCNC(=O)C(O)C(N)Cc1ccccc1)Cc1ccccc1 (centres unmarked) [drawing 234] | 200 |  |  |  |
| NC(CC(=O)NCC1(CNC(=O)C(O)C(N)Cc2ccccc2)CCC1)Cc1cc(F)ccc1F (centres unmarked) [drawing 263] | 29.9 | 19.2 |  |  |
| NC(CC(=O)N1CCCN(C(=O)C(O)C(N)Cc2ccccc2)CC1)Cc1cc(F)ccc1F (centres unmarked) [drawing 271] | 200 | 83.5 |  |  |
| CC(C)(CNC(=O)CC(N)Cc1cc(F)ccc1F)CNC(=O)C(O)C(N)Cc1ccc(-c2ccccc2)cc1 (centres unmarked) [drawing 281] | 119 | 98.5 |  |  |
| CCC(CC)(CNC(=O)CC(N)Cc1cc(F)ccc1F)CNC(=O)C(O)C(N)Cc1ccccc1 (centres unmarked) [drawing 265] |  | 7.2 |  |  |
| CN(CCCNC(=O)CC(N)Cc1cc(F)ccc1F)C(=O)C(O)C(N)Cc1ccccc1 (centres unmarked) [drawing 246] |  | ≥ 200 |  |  |
| NC(CC(=O)NCC1(CNC(=O)C(O)C(N)Cc2ccccc2)CCCCC1)Cc1cc(F)ccc1F (centres unmarked) [drawing 67] |  |  | 0.85 | 0.19 |
| NC(CC(=O)NCCCCCNC(=O)C(O)C(N)Cc1ccccc1)Cc1ccccc1 (centres unmarked) [drawing 27] |  |  | 0.12 | 2.67 |
| CCCCCCCCCCCCCCCCOC(C(=O)NCC(C)(C)CNC(=O)CC(N)Cc1cc(F)ccc1F)C(N)Cc1ccccc1 (centres unmarked) |  |  | > 50 | 25 |
| CC(C)(CNC(=O)CC(N)Cc1cc(F)ccc1F)CNC(=O)C(O)C(N)Cc1ccc(-c2cncnc2)cc1 (centres unmarked) [drawing 77] |  |  | 0.01 | 0.1 |
| NC(CC(=O)NC(CCCNC(=O)C(O)C(N)Cc1ccccc1)C(=O)O)Cc1cc(F)ccc1F (centres unmarked) [drawing 35] |  |  | 6.2 | 0.2 |
| NC(CC(=O)NCC1(CNC(=O)C(O)C(N)Cc2ccccc2)CCC1)Cc1cc(F)ccc1F (centres unmarked) [drawing 57] |  |  | 0.07 | 0.1 |
| CC(C)(CNC(=O)CC(N)Cc1cc(F)ccc1F)CNC(=O)C(O)C(N)Cc1ccc(-c2ccccc2)cc1 (centres unmarked) [drawing 75] |  |  | 0.346 | 0.1 |
| CC(C)(CNC(=O)CC(N)Cc1ccccc1)CNC(=O)C(O)C(N)Cc1ccccc1 (centres unmarked) [drawing 21] |  |  | 0.18 | 2 |
